Results published in patent US20250101108A1, “METHODS TO ENHANCE THERAPEUTIC EFFICACY IN MELANOMA VIA MODULATION OF CELL SURFACE PD-L1/L2” (THE REGENTS OF THE UNIVERSITY OF CALIFORNIA, priority 2021, published 2025).
Where two headings read alike, the source gives them in different places.

Experiments:
ITCH = ITCH (Homo sapiens, UniProt Q96J02); conditions: cited from earlier work
[1] = tested on: tumor cell-surface PD-L1/L2; test: Cell-surface PD-L1 and PD-L2 detection by cell-surface staining and FACS analysis in cultured cell lines; assay type: cell-based, human
Method: (§1) (6A) Structure and chemical name of AK087. (6B) M238R1 cells with ITCH-FLAG over-expression were treated with 0, 40, or 80 μM of AK087 for 6 days and then treated with MG-132 (20 μM) for 4 hours followed by anti-PD-L1 or anti-FLAG IP and Western blot (WB) detection of UB. (6C) 293T cells co-transfected with PD-L1-FLAG and ITCH-HA were treated with 0, 40, or 80 μM of AK087 for 6 days and then treated with MG-132 (20 μM) for 4 hours followed by anti-HA or anti-FLAG IP and WB detection of UB. (6D) M238R1 cell-surface levels of PD-L1 (left) and PD-L2 (right) as measured by cell-surface staining and FACS analysis after 0, 20, 40, 80 μM AK087 treatment for 6 days. Mean±SEMs (n=3). […]
(§2) FIGS. 9A-9N show physical and functional interactions between ITCH and PD-L1/L2. (9A) Cell-surface levels of PD-L2 in M238R1 (left) and MDA-MB-231 (right) cells stably expressing control shRNA (shCtr) or ITCH-targeting shRNAs (shiICH-1, shiICH-2), as measured by cell-surface staining and FACS analysis (PD-L2 is not detectable in H358 cells). MFI, mean fluorescence intensity. […] (9B) Cell-surface levels of PD-L2 in M238 R1 cells stably expressing empty vector (Vec) or over-expression (OE) ITCH, as measured by cell-surface staining and FACS analysis. […] (9C) Cell-surface levels of PD-L1 in M238R1, H358, and MDA-MB-231 stably expressing control shRNA (shCtr) or ITCH-targeting shRNAs (shiICH-1, shiICH-2) and M238R1 stably expressing empty vector (Vec) or OE ITCH, as measured by immunofluorescence staining. […] (9D) PD-L1 internalization in M238 R1 cells stably expressing empty vector (Vec) or OE ITCH, as measured by FACS analysis. […]

endogenous PD-L1 = test: Ubiquitination assay (anti-PD-L1 IP and WB detection of UB) in M238 R1 cells; assay type: cell-based, human; conditions: 0, 40, 80 μM for 6 days, then MG-132 20 μM 4 hours
Method: as §1

ITCH-FLAG = target: T1, ITCH-FLAG (Homo sapiens, UniProt Q96J02); test: Ubiquitination assay (IP and WB detection of UB) in M238 R1 cells expressing ITCH-FLAG; assay type: cell-based; conditions: 0, 40, 80 μM for 6 days, then MG-132 20 μM 4 hours
T1 construct: expressed in transfected cells
Method: as §1

UBCH7 and ITCH [2] = target: T2, UBCH7 and ITCH (Homo sapiens, UniProt Q96J02); test: UBCH7-ITCH interaction, proximity ligation assay (PLA) in cancer cell lines; assay type: cell-based; conditions: M229R5, H358, M238R1 and M238, 100 μM for 2 days
Method: Right panel: M229R5, H358, M238R1 and M238 cells were treated with DMSO or AK087 (100 μM) for 2 days followed by proximity ligation assay (PLA) using anti-UBCH7 and anti-ITCH antibodies. Signal dots per cell was quantified by the Duolink ImageTool. For bar graph: n=2-3. Means±SEM. *p<0.05, **p<0.01, student's t test.
For bar graph: n=2-3. Means #SEM. *p<0.05, **p<0.01, student's t test.

[3] = tested on: YUMM1.7ER melanoma tumors; test: Subcutaneous syngeneic YUMM1.7ER tumors on trametinib, acquired MAPKi-resistance; assay type: in vivo
UBCH7 and ITCH [4] = target: T2, UBCH7 and ITCH; test: UBCH7-ITCH interaction, anti-FLAG immunoprecipitation and WB in HEK293T cells; assay type: cell-based; design: expressed in transfected cells; host or cells: HEK293T; conditions: HA-UBCH7 and ITCH-FLAG, 100 μM for 24 or 36 hours
YUMM1.7ER = test: Response of YUMM1.7ER melanoma to immune checkpoint blockade; assay type: in vivo, murine; conditions: AK087 10 mg/kg/day subcutaneously with anti-PD-1, anti-CTLA-4
Method: (§3) Data are derived from two murine models of melanoma, YUMM1.ER, Braf^V600MUT melanoma, and NILER1-4, […] melanoma. (15A) YUMM1.7ER. n=9-10 per group. Means±SEM. Anti-PD-1 200 μg/mouse, anti-CTLA-4 200 μg/mouse three times a week for the first two weeks, then change to twice/week treatment. AK087 10 mg/kg/day (Subcutaneously, daily) administration. *p<0.05, student's t test. (15B) NILER1-4. n=8-10 per group. Means±SEM. Anti-PD-1 200 μg/mouse, anti-CTLA-4 200 g/mouse, aLAG-3 200 μg/mouse three times a week for the first two weeks, then change to twice/week treatment. AK087 15 mg/kg/day (Subcutaneously, daily) administration. *p<0.05, student's t test.
as §3, with “melanoma. […]” for “melanoma. (15A) YUMM1.7ER. n=9-10 per group.”, “then changed” for “then change”, “test. […]” for “test. (15B) NILER1-4. n=8-10 per group.”, “200 μg/mouse,” for “200 g/mouse,”

NILER1-4 = test: Response of NILER1-4 melanoma to immune checkpoint blockade; assay type: in vivo, murine; conditions: AK087 15 mg/kg/day subcutaneously with anti-PD-1, anti-CTLA-4, aLAG-3
Method: as §3
as §3, with “melanoma. […]” for “melanoma. (15A) YUMM1.7ER. n=9-10 per group.”, “then changed” for “then change”, “test. […]” for “test. (15B) NILER1-4. n=8-10 per group.”, “200 μg/mouse,” for “200 g/mouse,”

total PD-L1 = test: Western blots of total PD-L1 protein levels in cultured cell lines; assay type: cell-based, human; conditions: for total PD-L1 protein level: 20, 40, 80 μM for 6 days
Method: as §1, §2

[5] = AK087 10 mg/kg/day for 17 days, co-treatment with trametinib
[6] = M238 R1 Vec or OE ITCH, 16 hours

ITCH, sequence (Q96J02 whole entry, species assumed): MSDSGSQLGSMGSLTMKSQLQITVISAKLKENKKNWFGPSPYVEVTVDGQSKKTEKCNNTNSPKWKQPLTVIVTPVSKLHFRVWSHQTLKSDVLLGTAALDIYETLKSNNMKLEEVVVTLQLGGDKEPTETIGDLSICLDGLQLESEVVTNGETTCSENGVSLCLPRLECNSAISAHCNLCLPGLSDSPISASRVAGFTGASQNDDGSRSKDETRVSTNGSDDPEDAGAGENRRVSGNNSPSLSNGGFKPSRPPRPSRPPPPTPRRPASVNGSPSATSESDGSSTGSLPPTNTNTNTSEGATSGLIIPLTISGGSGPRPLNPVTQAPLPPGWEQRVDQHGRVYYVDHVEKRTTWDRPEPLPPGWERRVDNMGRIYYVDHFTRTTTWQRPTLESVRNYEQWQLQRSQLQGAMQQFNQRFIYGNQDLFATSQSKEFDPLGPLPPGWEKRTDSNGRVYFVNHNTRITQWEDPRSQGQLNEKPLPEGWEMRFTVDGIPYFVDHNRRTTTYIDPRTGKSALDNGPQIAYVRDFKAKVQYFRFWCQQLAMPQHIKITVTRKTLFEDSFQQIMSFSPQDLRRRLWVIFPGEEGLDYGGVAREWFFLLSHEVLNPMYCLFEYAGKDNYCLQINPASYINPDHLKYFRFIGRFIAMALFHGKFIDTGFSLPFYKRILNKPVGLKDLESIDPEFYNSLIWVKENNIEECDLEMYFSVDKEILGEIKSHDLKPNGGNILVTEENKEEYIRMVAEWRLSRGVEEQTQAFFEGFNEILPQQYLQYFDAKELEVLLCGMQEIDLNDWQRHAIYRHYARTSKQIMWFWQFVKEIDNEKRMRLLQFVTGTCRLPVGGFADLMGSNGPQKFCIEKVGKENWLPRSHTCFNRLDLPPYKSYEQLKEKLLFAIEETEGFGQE
T2 sequence (Q96J02 whole entry): as the sequence (Q96J02 whole entry, species assumed) above
T2 sequence (P68036 whole entry partner): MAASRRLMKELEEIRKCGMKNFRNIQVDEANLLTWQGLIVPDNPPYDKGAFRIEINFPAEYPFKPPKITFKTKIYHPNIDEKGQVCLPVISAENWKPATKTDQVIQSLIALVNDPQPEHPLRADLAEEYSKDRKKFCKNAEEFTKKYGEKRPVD
T1 sequence (Q96J02 whole entry): as the sequence (Q96J02 whole entry, species assumed) above

CHLORO- PHYLLIDE Cu COMPLEX Na SALT [RL 1]
Activity (%) (ITCH; Screening concentration 20 uM): 147%

Cc1[nH]nc2c1C(c1ccccc1OC(C)C)C(C#N)=C(N)O2 (stereo not shown) [RL 6, 6-amino-3-methyl-4-{2-[(1-methylethyl)oxy]phenyl}-2,4-dihydropyrano[2,3-c]pyrazole-5-carbonitrile]
Activity (%) (ITCH; Screening concentration 10 uM): 194%

Cc1ccc(N2C(=O)C(Cl)=C(N3CCCCC3)C2=O)cc1 [RL 2, 3-chloro-1-(4-methylphenyl)-4-piperidin-1-yl-1H-pyrrole-2,5-dione]
Activity (%) (ITCH; Screening concentration 10 uM): 141%

Cc1ccc(NS(=O)(=O)c2ccccc2)cc1C [RL 3, N-(3,4-dimethylphenyl)benzenesulfonamide]
Activity (%) (ITCH; Screening concentration 10 uM): 140%

COc1cc2oc(=O)cc(C)c2c(OC)c1OC [RL 5, 5,6,7-trimethoxy-4-methyl-2H-chromen-2-one]
tumor cell-surface PD-L1 ([1]; H358, 0, 20, 40, 80 μM for 6 days): dose-dependently reduced
tumor cell-surface PD-L1/L2 ([1]; M238 R1, 0, 20, 40, 80 μM for 6 days): dose-dependently reduced
poly-ubiquitination of endogenous PD-L1 (endogenous PD-L1): enhancing the poly-ubiquitination
poly/auto-ubiquitination of ITCH-FLAG (ITCH-FLAG): dose-dependently enhanced
interaction between UBCH7 and ITCH (UBCH7 and ITCH [2]): enhances the interaction
body weight loss / toxicities [3, 5]: no appreciable body weight loss or superficial evidence of toxicities
complete responses [3, 5]: 5 of 9
acquired MAPKi-resistance ([3]; AK087 10 mg/kg/day subcutaneously for 17 days, co-treatment with trametinib 0.45 mg/kg/d): suppressed acquired MAPKi-resistance
interaction between UBCH7 and ITCH (UBCH7 and ITCH [4]): enhances the interaction
Activity (%) (ITCH; Screening concentration 10 uM): 140%
enhancement of auto-ubiquitination of ITCH (ITCH; reconstituted recombinant proteins, small molecule screen (ref. 25)): 140%
response to immune checkpoint blockade (YUMM1.7ER): improves responses
response to immune checkpoint blockade (NILER1-4): improves responses
total PD-L1 protein level (total PD-L1; H358): dose-dependently reduced
total PD-L1 protein level (total PD-L1; M238 R1): dose-dependently reduced

CCN(CC)CCCC(C)Nc1ccnc2cc(Cl)ccc12 (stereo not shown) [chloroquine, reference compound]
down-regulation of cell-surface PD-L1 levels elicited by ITCH over-expression [1, 6]: rescued down-regulation
down-regulation of total PD-L1 levels elicited by ITCH over-expression (total PD-L1; [6]): rescued down-regulation

Cc1ccc(S(=O)(=O)c2cc3ccc(C)n3cn2)cc1 [RL 4, 4-methylphenyl 7-methylpyrrolo[1,2-c]pyrimidin-3-yl sulfone]
Activity (%) (ITCH; Screening concentration 10 uM): 145%
